One data set deals with S. aureus, 209P. The experiment in a line: antibacterial activity (MIC), standard method of Japanese Society of Chemotherapy.
For a further data set, the system named is P. vulgaris, 08601. The data set is described as above.
For a further data set, the system named is P. aeruginosa, 32104. Described as above.
In a further data set the test system is P. aeruginosa, 32121. Described as above.
The test system of data set [1] is S. aureus, 87037 (LVFX-resistant MRSA). Described as above.
In the next data set the test system is S. epidermidis, 56500. Described as above.
The next data set deals with E. faecalis, ATCC 19433. The description is as above.
A further data set relates to E. coli NIHJ. The description is as above.
For data set [2], the system named is S. pneumoniae, J24 (penicillin-intermediate resistant bacteria). Described as above.
The subject of a further data set is S. marscecens, 10100. The experiment in a line: antibacterial activity (MIC), standard method of Japanese Society of Chemotherapy.
The target in a further data set is hERG K+ channel (Homo sapiens, UniProt Q12809). The experiment in a line: hERG-K^+ channel blocking effect.
[3] abbreviates: Proteus vulgaris, 08601, P. vulgaris.
Where [4] appears, read: Staphylococcus aureus, MRSA, S. aureus, 87037 (LVFX-resistant MRSA).
The mark [5] stands for this setting: Staphylococcus epidermidis, 56500, S. epidermidis.
Where [6] appears, read: Enterococcus faecalis, ATCC19433, E. faecalis.

≈ marks a conversion by molar mass, not a printed value. Read-outs that look alike come from different tables or passages of the source.

Chain of hERG K+ channel (Q12809 whole entry): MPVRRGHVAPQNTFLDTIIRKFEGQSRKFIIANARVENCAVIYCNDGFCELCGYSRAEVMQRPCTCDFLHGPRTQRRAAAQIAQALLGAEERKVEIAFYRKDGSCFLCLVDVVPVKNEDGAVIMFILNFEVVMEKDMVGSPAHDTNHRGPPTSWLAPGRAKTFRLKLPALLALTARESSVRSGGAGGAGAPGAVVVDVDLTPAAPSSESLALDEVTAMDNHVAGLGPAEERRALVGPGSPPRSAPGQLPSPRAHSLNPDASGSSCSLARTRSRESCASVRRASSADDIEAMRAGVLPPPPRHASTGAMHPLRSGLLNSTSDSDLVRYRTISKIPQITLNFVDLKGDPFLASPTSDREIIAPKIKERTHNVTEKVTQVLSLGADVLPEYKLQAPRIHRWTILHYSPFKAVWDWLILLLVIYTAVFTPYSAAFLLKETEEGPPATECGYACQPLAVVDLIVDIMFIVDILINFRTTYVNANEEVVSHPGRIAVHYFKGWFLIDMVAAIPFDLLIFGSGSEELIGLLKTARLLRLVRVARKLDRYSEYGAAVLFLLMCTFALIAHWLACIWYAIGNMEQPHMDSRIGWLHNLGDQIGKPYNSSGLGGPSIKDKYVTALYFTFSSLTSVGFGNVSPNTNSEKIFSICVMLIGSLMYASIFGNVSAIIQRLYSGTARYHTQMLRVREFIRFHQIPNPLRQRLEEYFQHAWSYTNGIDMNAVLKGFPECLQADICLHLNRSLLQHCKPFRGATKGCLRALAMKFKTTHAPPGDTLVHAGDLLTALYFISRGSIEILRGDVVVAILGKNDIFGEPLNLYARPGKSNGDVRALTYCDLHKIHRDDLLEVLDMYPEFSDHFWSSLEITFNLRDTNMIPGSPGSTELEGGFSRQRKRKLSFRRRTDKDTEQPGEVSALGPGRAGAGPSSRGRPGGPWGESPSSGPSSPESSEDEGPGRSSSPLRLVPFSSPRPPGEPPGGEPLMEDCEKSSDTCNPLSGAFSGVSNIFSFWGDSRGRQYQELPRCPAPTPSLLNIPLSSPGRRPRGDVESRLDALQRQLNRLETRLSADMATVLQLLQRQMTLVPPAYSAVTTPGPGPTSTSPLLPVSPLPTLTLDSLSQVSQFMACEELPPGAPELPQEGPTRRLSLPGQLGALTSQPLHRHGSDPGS

In the case of `C=C1CN(c2c(F)cc3c(=O)c(C(=O)O)cn([C@@H]4C[C@@H]4F)c3c2OC)C[C@]1(C)N` [Example 17, 7-[(3R)-3-Amino-3-methyl-4-methylenepyrrolidine-1-yl]-6-fluoro-1-[(1R,2S)-2-fluorocyclopropyl]-8-methoxy-1,4-dihydro-4-oxoquinoline-3-carboxylic acid], the melting point was 236 to 239 °C (dec.). Moreover, the minimum inhibitory concentration (MIC) in the data set on S. aureus, 209P (Staphylococcus aureus) was found to be 0.025 µg/mL (≈ 0.0617 µM). Also, the minimal inhibitory concentration (MIC) against P. vulgaris, 08601 (setting [3]) turned out to be 0.012 µg/mL (≈ 0.0296 µM). Also, the minimal inhibitory concentration (MIC) with P. aeruginosa, 32104 (Pseudomonas aeruginosa) turned out to be 0.39 µg/mL (≈ 0.962 µM). In the data set with P. aeruginosa, 32121 (Pseudomonas aeruginosa), this compound came in with an MIC of 0.1 µg/mL (≈ 0.247 µM). The compound further gave a minimum inhibitory concentration (MIC) in data set [1] (setting [4]) of 0.39 µg/mL (≈ 0.962 µM). Further, the lowest concentration to inhibit growth against S. epidermidis, 56500 (setting [5]) (MIC) was 0.1 µg/mL (≈ 0.247 µM). This compound also yielded a minimum inhibitory concentration (MIC) against E. faecalis, ATCC 19433 (setting [6]) of 0.2 µg/mL (≈ 0.493 µM). In the data set on E. coli NIHJ (Escherichia coli), this compound gave a minimal inhibitory concentration (MIC) of 0.006 µg/mL (≈ 0.0148 µM). The compound further showed an MIC in data set [2] (Streptococcus pneumoniae) of 0.1 µg/mL (≈ 0.247 µM). In addition, 0.1 µg/mL (≈ 0.247 µM) was the least that counted as inhibitory against S. marscecens, 10100 (MIC).
As to `Cc1c(N2CC3(CC3)[C@](C)(N)C2)ccc2c(=O)c(C(=O)O)cn(C3CC3)c12` [Example 30, 7-[(7S)-7-Amino-7-methyl-5-azaspiro[2.4]heptan-5-yl]-1-cyclopropyl-8-methyl-1,4-dihydro-4-oxoquinoline-3-carboxylic acid], the melting point lay in the range of 227 to 230 °C. In the data set with S. aureus, 209P (Staphylococcus aureus), this compound came in with an MIC of 0.05 µg/mL (≈ 0.136 µM). In the data set with P. vulgaris, 08601 (setting [3]), this compound displayed an MIC of 0.025 µg/mL (≈ 0.068 µM). In the data set with P. aeruginosa, 32104 (Pseudomonas aeruginosa), this compound had a minimum inhibitory concentration (MIC) of 0.2 µg/mL (≈ 0.544 µM). Also, the minimum inhibitory concentration (MIC) in the data set with P. aeruginosa, 32121 (Pseudomonas aeruginosa) was 0.05 µg/mL (≈ 0.136 µM). This compound came in with an MIC in data set [1] (setting [4]) of 1.56 µg/mL (≈ 4.25 µM). In addition, inhibition of growth in the data set with S. epidermidis, 56500 (setting [5]) (MIC) required 0.2 µg/mL (≈ 0.544 µM). Also, it took 0.39 µg/mL (≈ 1.06 µM) to inhibit growth with E. faecalis, ATCC 19433 (setting [6]) (MIC). The compound further displayed an MIC in the data set with E. coli NIHJ (Escherichia coli) of 0.006 µg/mL (≈ 0.0163 µM). Besides, the MIC in data set [2] (Streptococcus pneumoniae) amounted to 0.2 µg/mL (≈ 0.544 µM). This compound also had a minimal inhibitory concentration (MIC) in the data set with S. marscecens, 10100 of 0.1 µg/mL (≈ 0.272 µM).
For `COc1c(N2CC(C)(N)C3(CC3)C2)c(F)cc2c(=O)c(C(=O)O)cn([C@@H]3C[C@@H]3F)c12` (stereo partly drawn) [Example 10, 7-(7-Amino-7-methyl-5-azaspiro[2.4]heptan-5-yl)-6-fluoro-1-[(1R,2S)-2-fluorocyclopropyl]-8-methoxy-1,4-dihydro-4-oxoguinoline-3-carboxylic acid], the minimal inhibitory concentration (MIC) with S. aureus, 209P is 0.05 µg/mL (≈ 0.119 µM); with P. vulgaris, 08601 (P. vulgaris), 0.05 µg/mL (≈ 0.119 µM); with P. aeruginosa, 32104 (P. aeruginosa), 0.39 µg/mL (≈ 0.93 µM); in the data set on P. aeruginosa, 32121 (P. aeruginosa) it was 0.2 µg/mL (≈ 0.477 µM); in [1] (S. aureus, 87037 (LVFX-resistant MRSA)), 1.56 µg/mL (≈ 3.72 µM); against S. epidermidis, 56500 (S. epidermidis), 0.2 µg/mL (≈ 0.477 µM). Besides, the minimum inhibitory concentration (MIC) with E. faecalis, ATCC 19433 (E. faecalis) turned out to be 0.78 µg/mL (≈ 1.86 µM); against E. coli NIHJ (E. coli NIHJ) it was 0.025 µg/mL (≈ 0.0596 µM); in [2], 0.39 µg/mL (≈ 0.93 µM); with S. marscecens, 10100, 0.2 µg/mL (≈ 0.477 µM).
For `C[C@H]1COc2c(N3CC(C)(N)C4(CC4)C3)c(F)cc3c(=O)c(C(=O)O)cn1c23` (stereo partly drawn) [Example 16, (3S)-10-(7-Amino-7-methyl-5-azaspiro[2.4]heptane-5-yl)-9-fluoro-2,3-dihydro-3-methyl-7-oxo-7H-pyrido[1,2,3-de][1,4]benzoxazine-6-carboxylic acid], the melting point fell in the range of 268 to 270 °C. In the data set on S. aureus, 209P (Staphylococcus aureus), this compound returned an MIC of 0.025 µg/mL (≈ 0.0645 µM). Moreover, the MIC against P. vulgaris, 08601 (setting [3]) was found to be 0.006 µg/mL (≈ 0.0155 µM). This compound registered an MIC in the data set with P. aeruginosa, 32104 (Pseudomonas aeruginosa) of 0.1 µg/mL (≈ 0.258 µM). In addition, it took 0.05 µg/mL (≈ 0.129 µM) to inhibit growth with P. aeruginosa, 32121 (Pseudomonas aeruginosa) (MIC). In [1] (setting [4]), 3.13 µg/mL (≈ 8.08 µM) was the least that counted as inhibitory (MIC). The compound also gave an MIC with S. epidermidis, 56500 (setting [5]) of 0.1 µg/mL (≈ 0.258 µM). In the data set with E. faecalis, ATCC 19433 (setting [6]), this compound had a minimum inhibitory concentration (MIC) of 0.39 µg/mL (≈ 1.01 µM). This compound also showed a minimal inhibitory concentration (MIC) against E. coli NIHJ (Escherichia coli) of 0.012 µg/mL (≈ 0.031 µM). The same compound yielded a minimal inhibitory concentration (MIC) in [2] (Streptococcus pneumoniae) of 0.2 µg/mL (≈ 0.516 µM). This compound also yielded an MIC in the data set on S. marscecens, 10100 of 0.1 µg/mL (≈ 0.258 µM).
For the compound `COc1c(N2CCNC(C)C2)c(F)cc2c(=O)c(C(=O)O)cn(C3CC3)c12` (stereo not shown) [GTFX, gatifloxacin, reference compound], the MIC in the data set on S. aureus, 209P (Staphylococcus aureus) came to 0.05 µg/mL (≈ 0.133 µM); against P. vulgaris, 08601 (setting [3]), 0.006 µg/mL (≈ 0.016 µM); in the data set on P. aeruginosa, 32104 (Pseudomonas aeruginosa), 0.2 µg/mL (≈ 0.533 µM); against P. aeruginosa, 32121 (Pseudomonas aeruginosa) it was 0.1 µg/mL (≈ 0.266 µM); in [1] (Staphylococcus aureus, MRSA), 1.56 µg/mL (≈ 4.16 µM); in the data set with S. epidermidis, 56500 (setting [5]), 0.2 µg/mL (≈ 0.533 µM). Moreover, the minimum inhibitory concentration (MIC) in the data set on E. faecalis, ATCC 19433 (setting [6]) worked out at 0.39 µg/mL (≈ 1.04 µM); in the data set on E. coli NIHJ (Escherichia coli), 0.006 µg/mL (≈ 0.016 µM); in data set [2] (Streptococcus pneumoniae), 0.2 µg/mL (≈ 0.533 µM); in the data set on S. marscecens, 10100, 0.1 µg/mL (≈ 0.266 µM). On hERG K+ channel, this compound yielded an inhibition at 30 µM of 8.1 ± 6%. The same compound displayed an inhibition at 100 µM against hERG K+ channel of 17.6 ± 11.5%. The compound also gave an inhibition at 300 µM at hERG K+ channel of 39 ± 10.8%.
For the compound `COc1c(N2CC(CF)C(C)(N)C2)c(F)cc2c(=O)c(C(=O)O)cn([C@@H]3C[C@@H]3F)c12` (single isomer, unassigned) [Example 8, 7-[(3R*,4S*)-3-Amino-4-fluoromethyl-3-methylpyrrolidin-1-yl]-6-fluoro-1-[(1R,2S)-2-fluorocyclopropyl]-8-methoxy-1,4-dihydro-4-oxoguinoline-3-carboxylic acid], the melting point is 186 to 189 °C. Further, it took 0.025 µg/mL (≈ 0.0588 µM) to inhibit growth against S. aureus, 209P (Staphylococcus aureus) (MIC). This compound came in with an MIC with P. vulgaris, 08601 (setting [3]) of 0.025 µg/mL (≈ 0.0588 µM). The compound also gave an MIC with P. aeruginosa, 32104 (Pseudomonas aeruginosa) of 0.78 µg/mL (≈ 1.83 µM). The MIC against P. aeruginosa, 32121 (Pseudomonas aeruginosa) is 0.2 µg/mL (≈ 0.47 µM). This compound yielded a minimal inhibitory concentration (MIC) in data set [1] (setting [4]) of 0.78 µg/mL (≈ 1.83 µM). The MIC in the data set on S. epidermidis, 56500 (setting [5]) amounted to 0.1 µg/mL (≈ 0.235 µM). The MIC with E. faecalis, ATCC 19433 (setting [6]) is 0.2 µg/mL (≈ 0.47 µM). Further, the lowest concentration to inhibit growth against E. coli NIHJ (Escherichia coli) (MIC) was 0.012 µg/mL (≈ 0.0282 µM). Besides, the minimal inhibitory concentration (MIC) in data set [2] (Streptococcus pneumoniae) was found to be 0.1 µg/mL (≈ 0.235 µM). Besides, on hERG K+ channel, 30 µM produced 1.5 ± 1.8% inhibition, at 100 µM the inhibition was 2.1 ± 2.3% and at 300 µM the inhibition was 2.3 ± 7.3%. In addition, it took 0.2 µg/mL (≈ 0.47 µM) to inhibit growth against S. marscecens, 10100 (MIC).

Usually MIC stands for the smallest concentration in the dilution series that meets the test's criterion for growth inhibition. The melting point is the temperature of the solid-liquid transition. What is called inhibition is the drop in the measured response relative to a control, in per cent.

Source of the values: patent US7563805B2, “Tri-, tetra-substituted-3-aminopyrrolidine derivative” (Daiichi Pharmaceutical Co., Ltd., priority 2005, dated 2009).
